According to publication PMC11347070 (Current Research in Toxicology, 2024):

What was measured:
[1] = ref FDA, KEPPRA® (levetiracetam), n.d.; cited from earlier work
[2] = system: zebrafish embryos and larvae; settings: exposed to 500 µM ECA; 120 hpf
[3] = system: zebrafish embryos and larvae; assay: Zebrafish embryo developmental toxicity assay; settings: for BA heart / Coagulation/dead / Curved fin left / Curved fin right / Curved tail / Edema head / Edema pericard / Edema yolk / No hatching / Tissue deviation tail / Tot. malformed (excl. dead) / Tot. malformed (incl. dead) / Deviation eye / Elbow tail: 120 hpf

## CCC(C(=O)O)N1CCCC1=O (stereo not drawn) [ECA, etiracetam carboxylic acid]
[1]
  human metabolite of LTC, share of the administered dose: 24 % of the administered dose
[2]
  concentration of ECA in larvae: no concentrations above the LOD could be detected
  uptake of ECA: no uptake of ECA could be observed
[3]; ECA 1 µM, replicate 1
  BA heart: 0/20
  Coagulation/dead: 0/20
  Curved fin left: 0/20
  Curved fin right: 0/20
  Curved tail: 0/20
  Edema head: 0/20
  Edema pericard: 0/20
  Edema yolk: 0/20
  No hatching: 0/20
  Tissue deviation tail: 0/20
  Tot. malformed (excl. dead): 0/20
  Tot. malformed (incl. dead): 0/20
[3]; ECA 1 µM, replicate 2
  BA heart: 0/19
  Coagulation/dead: 1/20
  Curved fin left: 0/19
  Curved fin right: 0/19
  Curved tail: 0/19
  Edema head: 0/19
  Edema pericard: 0/19
  Edema yolk: 0/19
  No hatching: 0/19
  Tissue deviation tail: 0/19
  Tot. malformed (excl. dead): 0/19
  Tot. malformed (incl. dead): 1/20
[3]; ECA 10 µM, replicate 1
  BA heart: 0/18
  Coagulation/dead: 2/20
  Curved fin left: 0/18
  Curved fin right: 0/18
  Curved tail: 2/18
  Edema head: 0/18
  Edema pericard: 0/18
  Edema yolk: 0/18
  No hatching: 1/18
  Tissue deviation tail: 0/18
  Tot. malformed (excl. dead): 2/18
  Tot. malformed (incl. dead): 4/20
[3]; ECA 10 µM, replicate 2
  BA heart: 0/20
  Coagulation/dead: 0/20
  Curved fin left: 0/20
  Curved fin right: 0/20
  Curved tail: 1/20
  Edema head: 0/20
  Edema pericard: 0/20
  Edema yolk: 0/20
  No hatching: 0/20
  Tissue deviation tail: 0/20
  Tot. malformed (excl. dead): 1/20
  Tot. malformed (incl. dead): 1/20
[3]; ECA 100 µM, replicate 1
  BA heart: 0/18
  Coagulation/dead: 2/20
  Curved fin left: 0/18
  Curved fin right: 0/18
  Curved tail: 0/18
  Edema head: 0/18
  Edema pericard: 1/18
  Edema yolk: 0/18
  No hatching: 0/18
  Tissue deviation tail: 1/18
  Tot. malformed (excl. dead): 1/18
  Tot. malformed (incl. dead): 3/20
[3]; ECA 100 µM, replicate 2
  BA heart: 1/20
  Coagulation/dead: 0/20
  Curved fin left: 1/20
  Curved fin right: 1/20
  Curved tail: 1/20
  Edema head: 1/20
  Edema pericard: 2/20
  Edema yolk: 1/20
  No hatching: 0/20
  Tissue deviation tail: 1/20
  Tot. malformed (excl. dead): 2/20
  Tot. malformed (incl. dead): 2/20
[3]; ECA 250 µM, replicate 1
  Coagulation/dead: 0/20
  Curved tail: 0/20
  Deviation eye: 0/20
  Elbow tail: 1/20
  Tissue deviation tail: 1/20
  Tot. malformed (excl. dead): 2/20
  Tot. malformed (incl. dead): 2/20
[3]; ECA 250 µM, replicate 2
  Coagulation/dead: 0/20
  Curved tail: 0/20
  Deviation eye: 0/20
  Elbow tail: 0/20
  Tissue deviation tail: 0/20
  Tot. malformed (excl. dead): 0/20
  Tot. malformed (incl. dead): 0/20
[3]; ECA 500 µM, replicate 1
  Coagulation/dead: 0/20
  Curved tail: 1/20
  Deviation eye: 1/20
  Elbow tail: 0/20
  Tissue deviation tail: 1/20
  Tot. malformed (excl. dead): 2/20
  Tot. malformed (incl. dead): 2/20
[3]; ECA 500 µM, replicate 2
  Coagulation/dead: 0/20
  Curved tail: 0/20
  Deviation eye: 0/20
  Elbow tail: 0/20
  Tissue deviation tail: 1/20
  Tot. malformed (excl. dead): 1/20
  Tot. malformed (incl. dead): 1/20
[3]; all test concentrations, 24 to 120 hpf, Fisher Exact test
  differences between test groups and embryo medium control group: no statistically significant differences
[3]; concentrations up to 10,000 µM LTC and 500 µM ECA, likely due to limited uptake or lack of uptake
  teratogenicity in zebrafish larvae: non-teratogenic
